Where a SMILES comes first, the peptide text is derived from it. [ ]: non-standard residue; d: D form. The star is where a group is joined. NH(TEMPO-4-yl) = CC1(C)CC(N*)CC(C)(C)N1[O]; Orn = NCCC[C@H](N)C(=O)O; Cbz = O=C(OCc1ccccc1)*; Boc = CC(C)(C)OC(=O)*
Assays:
[1] = test system: mouse embryonic cells (MEC); test: ActD-induced apoptosis in MECs (PS externalization, caspase-3, DNA fragmentation); format: cell-based
Description: Cells that annexin V-positive and PI-negative were considered apoptotic.

mouse embryonic cells = test: Gamma irradiation induced apoptosis (cytochrome c release, PS externalization); format: cell-based
Description: Externalization of PS was analyzed by flow cytometry using annexin-V kit. Briefly, harvested cells were stained with annexin-V-FITC and PI for 5 min in dark prior to flow cytometry analysis. Ten thousand events were collected on a FACScan flow cytometer (Becton-Dickinson) supplied with CellQuest software.
(A) XJB-5-125 blocks γ-irradiation induced accumulation of cytochrome c in the cytosol of mouse embryonic cells. (B) Densitometry ratio of cytochrome c/actin. Semi-quantitation of the bands was carried out by densitometry using Labworks Image Acquisition and Analysis Software (UVP, Upland, Calif.). The level of cytochrome c release was expressed as the mean densitometry ratio of cytochrome c over actin. (C) Dose (5, 10 and 20 μM) dependent radioprotective effect of XJB-5-125 (pre-treatment) on γ-irradiation (10 Gy) induced phosphatidylserine (PS) externalization. After 48 h post-irradiation incubation, cells were harvested and stained with annexin-V-FITC and propodium iodide (PI) prior to flow cytometry analysis. (D) Time (2, 3, 4, 5, and 6 h) dependent radioprotective effect of XJB-5-125 (20 μM) on γ-irradiation (10 Gy) induced PS externalization (48 h post irradiation) in mouse embryonic cells. […] Externalization of PS was analyzed 72 h post-irradiation exposure. […]

[2] = Topical and transdermal absorption through mouse skin (Bronaugh diffusion cell, EPR); format: in vitro ADME; settings: preliminary experiment
Description: A small piece of skin (2 cm^2) was placed in a Bronaugh style flow-through diffusion cell system (PermeGear, Riegelsville, Pa.) (FIG. 22). It was then sandwiched between two pieces of the inert polymer Kel-F and clamped shut to prevent leakage. The epidermal side faces upward and is exposed to the donor solution (test solution), and the dermal side is in contact with the receptor fluid. The exposed surface area is 0.79 cm^2 (circular chamber with 1 cm diameter). The skin forms a water-tight seal in the flow through chamber so the receiving fluid (PBS+25% ethanol) on the dermal side will contain the XJB-5-125 only if it has penetrated through the skin. The receiver chamber was perfused with this buffer that then passes to a fraction collector via Teflon tubing. The PBS+25% ethanol was used because it is an effective sink for hydrophobic compounds and produces better in vitro/in vivo correlations than other receiver solutions. The skin was maintained at 32° C. by placing the chamber in a metal block heated via a recirculating water bath. […]
EPR spectra were recorded at 334.7 mT, center field; 20 mW, power; 0.079 mT, field modulation; 5 mT, sweep width; 400 and 4000, receiver gain; 0.1 s, time constraint. […]
Further, the total transdermal absorption after 24 hours and the level of XJB-5-125 present in the viable skin can be successfully measured using the techniques described herein. […]

CC(C)C[C@H](NC(=O)OC(C)(C)C)C(=O)N[C@H](Cc1ccccc1)C(=O)N1CCC[C@H]1C(=O)N[C@H](C(=O)N[C@@H](CCCNC(=O)OCc1ccccc1)C(=O)NC1CC(C)(C)N([O])C(C)(C)C1)C(C)C [XJB-5-125] (Boc-L[dF]PV[Orn](Cbz)-{NH(TEMPO-4-yl)})
concentration range of activity in cells (dose-dependent attenuation of ActD-induced PS externalization) [1]: 2.5 to 20 µM
gamma irradiation induced apoptosis (mouse embryonic cells; 10 Gy): protects
γ-irradiation induced accumulation of cytochrome c in the cytosol (mouse embryonic cells; mouse embryonic cells): blocks
penetration of intact skin [2]: can sufficiently penetrate intact skin

Source: patent US8748369B2, “Use of targeted nitroxide agents in bone healing” (University of Pittsburgh-Of the Commonwealth System of …, priority 2009, dated 2014)
